In PMC12441857, “Cannabinoid CB1 Receptor Activation Mitigates N‑Methyl‑D‑aspartate Receptor-Mediated Neurotoxicity” (ACS Pharmacology & Translational Science, 2025):

Target: T1, cannabinoid CB1 receptor (CB1R) (Homo sapiens, UniProt P21554)
T1 construct: gene CNR1; SNAP-tagged CB1R in HEK-293T cells
Assay: HTRF (Tag-lite) competition binding against fluorescent CELT-335
Assay type: cell-based

T1 sequence (P21554 whole entry): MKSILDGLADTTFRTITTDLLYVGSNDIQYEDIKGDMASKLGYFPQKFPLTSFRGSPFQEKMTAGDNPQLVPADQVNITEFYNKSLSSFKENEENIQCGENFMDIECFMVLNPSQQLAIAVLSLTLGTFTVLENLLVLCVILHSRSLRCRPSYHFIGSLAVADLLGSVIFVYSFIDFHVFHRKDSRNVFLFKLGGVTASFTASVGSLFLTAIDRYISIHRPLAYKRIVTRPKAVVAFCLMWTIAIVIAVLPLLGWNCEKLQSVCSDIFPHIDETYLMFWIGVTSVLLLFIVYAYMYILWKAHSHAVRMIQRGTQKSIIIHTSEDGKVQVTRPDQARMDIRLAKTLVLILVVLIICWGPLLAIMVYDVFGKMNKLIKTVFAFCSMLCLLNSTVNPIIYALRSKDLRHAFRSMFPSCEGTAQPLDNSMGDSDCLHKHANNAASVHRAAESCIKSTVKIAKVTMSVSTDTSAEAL

Compound `CCCCC/C=C\C/C=C\C/C=C\C/C=C\CCCC(=O)NCCCl` [ACEA] has a Ki of 4.8 nM.
